Measured values: patent publication US6177447A (Universiteit van Amsterdam, priority 1996, dated 2001)
Entries after “also recorded” stand apart in the source; their conditions may differ. Like-named read-outs stand apart in the source and are kept apart here.

Assays:
[1] = target: T1, lysosomal a-glucosidase (Homo sapiens, UniProt P10253); assay: purified lysosomal a-glucosidase activity towards 4MU-a-glucoside; type: biochemical
[2] = tested on: chitotriosidase; assay: chitotriosidase secretion by cultured macrophages; type: cell-based, human
[3] = target: T2, glucosylceramidase (Homo sapiens, UniProt Q9HCG7); assay: glucosylceramidase activity towards 4MU-b-glucoside in conduritol B-epoxide pre-treated membrane suspension from human spleen; conditions: for inhibition of glucosylceramidase, in words: comparison among N-alkyl derivatives
T2 sequence (Q9HCG7 1-927): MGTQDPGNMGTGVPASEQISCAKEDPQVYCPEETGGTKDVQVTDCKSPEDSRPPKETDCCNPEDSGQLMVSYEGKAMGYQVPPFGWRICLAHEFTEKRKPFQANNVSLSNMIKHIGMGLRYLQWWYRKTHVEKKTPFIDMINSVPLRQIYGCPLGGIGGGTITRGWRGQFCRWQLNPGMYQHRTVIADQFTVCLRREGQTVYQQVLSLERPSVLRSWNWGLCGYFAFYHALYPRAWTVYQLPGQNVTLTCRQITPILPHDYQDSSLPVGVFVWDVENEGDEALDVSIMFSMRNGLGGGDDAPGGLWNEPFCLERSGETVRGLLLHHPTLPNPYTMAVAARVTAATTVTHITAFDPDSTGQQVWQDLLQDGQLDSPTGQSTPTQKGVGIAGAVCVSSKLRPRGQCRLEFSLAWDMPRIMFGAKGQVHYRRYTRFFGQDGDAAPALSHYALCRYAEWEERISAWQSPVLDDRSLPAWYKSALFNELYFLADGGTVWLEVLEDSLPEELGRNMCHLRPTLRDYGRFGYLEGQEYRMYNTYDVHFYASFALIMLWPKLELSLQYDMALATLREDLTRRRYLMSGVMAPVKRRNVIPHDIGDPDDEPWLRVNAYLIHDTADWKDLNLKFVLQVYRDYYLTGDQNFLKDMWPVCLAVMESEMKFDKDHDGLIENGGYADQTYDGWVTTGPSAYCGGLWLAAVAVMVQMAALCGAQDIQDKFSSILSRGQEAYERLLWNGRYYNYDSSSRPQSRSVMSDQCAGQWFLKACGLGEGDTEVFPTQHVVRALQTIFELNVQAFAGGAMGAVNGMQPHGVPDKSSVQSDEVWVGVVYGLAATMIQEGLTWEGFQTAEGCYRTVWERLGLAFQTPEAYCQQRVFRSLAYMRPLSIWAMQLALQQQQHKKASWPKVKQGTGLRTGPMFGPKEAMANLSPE

[4] = target: T3, glucocerebrosidase (Ceredase) (Homo sapiens, UniProt P04062); assay: activity of soluble human placental glucocerebrosidase (Ceredase) towards 4MU-b-glucoside; type: biochemical; conditions: soluble enzyme, 0.25% sodium taurocholate, 0.1% Triton X-100, pH 5.2; read-out: apparent Ki GLUCOCEREBROSIDASE CEREDASE
T3 construct: purchased Genzyme Corp. Boston,USA; host or cells: human placenta
T3 sequence (P04062 40-536): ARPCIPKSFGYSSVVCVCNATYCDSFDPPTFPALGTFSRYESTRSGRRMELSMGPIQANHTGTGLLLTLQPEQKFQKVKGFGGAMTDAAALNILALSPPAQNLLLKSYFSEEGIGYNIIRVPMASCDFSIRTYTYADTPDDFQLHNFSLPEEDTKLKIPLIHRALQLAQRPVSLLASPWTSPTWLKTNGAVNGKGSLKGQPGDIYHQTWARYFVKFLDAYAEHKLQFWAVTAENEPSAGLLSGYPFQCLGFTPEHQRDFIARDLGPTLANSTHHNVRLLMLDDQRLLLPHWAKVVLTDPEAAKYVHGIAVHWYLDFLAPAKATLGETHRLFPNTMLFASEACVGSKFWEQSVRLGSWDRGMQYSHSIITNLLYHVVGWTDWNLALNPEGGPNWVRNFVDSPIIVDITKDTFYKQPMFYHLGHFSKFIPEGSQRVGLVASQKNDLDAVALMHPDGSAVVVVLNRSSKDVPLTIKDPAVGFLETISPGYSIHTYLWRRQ

[5] = target: T4, glucocerebrosidase (Homo sapiens, UniProt P04062); assay: conduritol B-epoxide inhibitable glucocerebrosidase activity in membrane fraction from human spleen; type: biochemical; conditions: membrane suspension, 4MU-b-glucoside, pH 5.2; read-out: apparent Ki GLUCOCEREBROSIDASE MEMBRANES
T4 sequence (P04062 40-536): T3 sequence (P04062 40-536)

[6] = target: T2, glucosylceramidase; assay: glucosylceramidase activity in intact melanoma cells (4MU-b-glucoside, conduritol B-epoxide insensitive); type: cell-based; parameters: endogenous in cells
[7] = target: T4, glucocerebrosidase; assay: glucocerebrosidase activity in intact melanoma cells (4MU-b-glucoside, conduritol B-epoxide sensitive); type: cell-based; parameters: the hydrolysis of 4MU-b-glucoside by cultured melanoma cells; endogenous in cells
[8] = target: T5, glycogen synthase (Rattus norvegicus, UniProt P17625); assay: glycogen synthase in rat hepatocytes; type: cell-based; conditions: at IC50 concentration for glucosylceramidase
T5 construct: endogenous in cells; host or cells: rat hepatocytes
T5 sequence (P17625 1-704): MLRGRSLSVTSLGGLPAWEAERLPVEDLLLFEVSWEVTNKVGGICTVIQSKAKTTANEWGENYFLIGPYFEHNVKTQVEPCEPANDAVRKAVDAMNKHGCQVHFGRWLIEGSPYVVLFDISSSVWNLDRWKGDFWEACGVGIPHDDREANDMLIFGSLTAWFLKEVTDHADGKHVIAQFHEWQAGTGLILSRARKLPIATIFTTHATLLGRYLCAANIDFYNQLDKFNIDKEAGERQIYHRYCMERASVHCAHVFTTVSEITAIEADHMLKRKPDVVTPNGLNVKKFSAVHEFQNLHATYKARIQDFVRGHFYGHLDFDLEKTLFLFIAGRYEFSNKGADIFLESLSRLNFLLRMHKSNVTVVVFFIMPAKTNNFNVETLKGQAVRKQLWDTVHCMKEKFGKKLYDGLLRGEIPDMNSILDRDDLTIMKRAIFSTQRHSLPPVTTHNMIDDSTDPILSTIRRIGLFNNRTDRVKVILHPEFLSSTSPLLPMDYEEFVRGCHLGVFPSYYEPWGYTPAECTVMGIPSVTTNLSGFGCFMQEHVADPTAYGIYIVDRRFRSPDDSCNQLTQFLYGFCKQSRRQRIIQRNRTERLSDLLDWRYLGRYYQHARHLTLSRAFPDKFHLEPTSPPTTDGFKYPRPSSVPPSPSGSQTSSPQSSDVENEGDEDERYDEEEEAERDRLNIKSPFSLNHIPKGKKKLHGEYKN

[9] = target: T1, lysosomal a-glucosidase; assay: lysosomal a-glucosidase in cultured melanoma cells; type: cell-based; parameters: endogenous in cells; conditions: at IC50 concentration for glucosylceramidase
[10] = target: T6, glucosylceramide synthase (Homo sapiens, UniProt Q16739); assay: glucosylceramide synthase activity in cultured macrophages with C6-NBD ceramide; type: cell-based; parameters: glucosylceramide synthase activity in cultured macrophages was also determined; endogenous in cells; host or cells: cultured human macrophages; conditions: presence of PDMP or PPMP
T6 sequence (Q16739 1-394): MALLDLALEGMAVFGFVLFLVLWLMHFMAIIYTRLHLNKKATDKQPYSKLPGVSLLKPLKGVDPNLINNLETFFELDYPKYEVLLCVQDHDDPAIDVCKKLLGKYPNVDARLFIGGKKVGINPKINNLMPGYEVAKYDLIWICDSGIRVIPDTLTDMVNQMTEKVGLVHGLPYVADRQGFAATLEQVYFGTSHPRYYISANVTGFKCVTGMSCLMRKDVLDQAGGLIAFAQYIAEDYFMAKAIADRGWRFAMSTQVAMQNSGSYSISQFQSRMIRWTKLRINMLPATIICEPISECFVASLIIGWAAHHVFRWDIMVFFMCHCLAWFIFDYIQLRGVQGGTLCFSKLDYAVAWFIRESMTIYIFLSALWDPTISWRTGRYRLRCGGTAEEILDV

[11] = 4MU-a-glucoside, pH 4.0, read-out: apparent Ki A-GLUCOSIDASE
[12] = read-out: IC50 GLUCOSYLCERAMIDASE
[13] = intact melanoma cells, read-out: IC50 GLUCOCEREBROSIDASE
[14] = read-out: apparent Ki GLUCOSYLCERAMIDASE, membrane suspension, 4MU-b-glucoside, pH 5.2, competitive inhibition assumed

Row | Compound | Ki [4] | Ki [5] | inhibition of lysosomal a-glucosidase, in words [1] | Ki [1, 11] | IC50 [7, 13] | Ki [3, 14] | also measured
1 | CCCCN1C[C@H](O)[C@@H](O)[C@H](O)[C@H]1CO [BUTYLDNJ, butyl-deoxynojirimycin] |  |  |  |  |  |  | Ki [1]: 6.43 µM; activity at 0.5 µM ([2]; Homo sapiens, Macrophage, 96 h, 0.5 uM, 4 days, relative to no inhibitor (100%)): 68%; activity at 5 µM ([2]; Homo sapiens, Macrophage, 96 h, 5 uM, 4 days, relative to no inhibitor (100%)): 49%; activity at 50 µM ([2]; Homo sapiens, Macrophage, 96 h, 50 uM, 4 days, relative to no inhibitor (100%)): 28%
2 | CCCCCCN1C[C@H](O)[C@@H](O)[C@H](O)[C@H]1CO [N-hexyl-deoxynojirimycin, reference compound] |  |  |  |  |  |  | inhibition of glucosylceramidase, in words [3]: less potent inhibitor
3 | O=C(CCCC(=O)N1C[C@H](O)[C@@H](O)[C@H](O)[C@H]1CO)OCC12CC3CC(CC(C3)C1)C2 [P4] | 19.7 µM | 3.2 µM | very poor inhibitors | > 100 µM | 5 µM | 461 µM | IC50 [6, 12]: 200 µM
4 | CC(C)CCC[C@@H](C)[C@H]1CC[C@H]2[C@@H]3CC=C4C[C@@H](OC(=O)CCCC(=O)N5C[C@H](O)[C@@H](O)[C@H](O)[C@H]5CO)CC[C@]4(C)[C@H]3CC[C@]12C [P9] | 51.6 µM | > 100 µM | very poor inhibitors | > 100 µM |  | > 100 µM | 
5 | O=C(CCCC(=O)N1C[C@H](O)[C@@H](O)[C@H](O)[C@H]1CO)OC12CC3CC(CC(C3)C1)C2 [P11] | 113 µM | 4.1 µM | very poor inhibitors | > 100 µM | 8 µM | 306 µM | IC50 [6, 12]: 200 µM
6 | CC(C)CCC[C@@H](C)[C@H]1CC[C@H]2[C@@H]3CC[C@H]4C[C@@H](OC(=O)CCCC(=O)N5C[C@H](O)[C@@H](O)[C@H](O)[C@H]5CO)CC[C@]4(C)[C@H]3CC[C@]12C [P13] | 11.2 µM | > 100 µM | very poor inhibitors | > 100 µM |  | > 100 µM | 
7 | O=C(CCCC(=O)N1C[C@H](O)[C@@H](O)[C@H](O)[C@H]1CO)Oc1cc2ccccc2c2ccccc12 [P16] | 11.6 µM | 0.44 µM | very poor inhibitors |  |  |  | Ki ([1]; read-out: apparent Ki A-GLUCOSIDASE, 4MU-a-glucoside, pH 4.0): > 100 µM; IC50 ([7]; read-out: IC50 GLUCOCEREBROSIDASE, intact melanoma cells): > 1 µM
8 | OCC1C(O)C(O)C(O)CN1CCCCCOCC12CC3CC(CC(C3)C1)C2 (stereo not drawn) [P21, N-(5-adamantane-1-yl-methoxy-pentyl) deoxynojirimycin] |  |  |  |  |  |  | activity at 2.5 pM ([2]; Homo sapiens, Macrophage, 96 h, 0.0025 nM, 4 days, relative to no inhibitor (100%)): 105%; activity at 50 pM ([2]; Homo sapiens, Macrophage, 96 h, 0.05 nM, 4 days, relative to no inhibitor (100%)): 72%; activity at 0.001 µM ([2]; Homo sapiens, Macrophage, 96 h, 1 nM, 4 days, relative to no inhibitor (100%)): 64%; inhibition of glycogen synthase [8]: no inhibition; inhibition of lysosomal a-glucosidase [9]: no inhibition
9 | CCCCC(=O)N1C[C@H](O)[C@@H](O)[C@H](O)[C@H]1CO [PENTANOYLDNJ, N-pentanoyl DNJ, reference compound] | 670 µM | 83 µM |  | 2.39 µM | > 1 µM |  | IC50 [6, 12]: 30 µM; Ki [3]: 84 µM
10 | CCCCCN1C[C@H](O)[C@@H](O)[C@H](O)[C@H]1CO [PENTYLDNJ, N-pentyl DNJ, reference compound] | 249 µM | 8.5 µM |  |  | > 1 µM |  | Ki [1]: 3.74 µM; IC50 ([6]; IC50 GLUCOSYLCERAMIDASE): 0.15 µM; Ki [3]: 0.038 µM; inhibition of glucosylceramidase, in words [3]: Optimal inhibition
11 | CCCCCCCCCCCCCCCC(=O)NC(CN1CCOCC1)C(O)c1ccccc1 (stereo not drawn) [PPMP, 1-phenyl-2-hexadecanoylamino-3-morpholino-1-propanol] |  |  |  |  |  |  | effect on chitotriosidase secretion ([2]; cultured macrophages, glucosylceramide synthase inhibited): does not result in reduced; also recorded: without effect; inhibition of glucosylceramide synthase activity [10]: potently
12 | CCCN1C[C@H](O)[C@@H](O)[C@H](O)[C@H]1CO [PROPYLDNJ, N-propyl DNJ, reference compound] | 546 µM | 332 µM |  |  |  |  | Ki [1]: 9.24 µM; IC50 ([6]; IC50 GLUCOSYLCERAMIDASE): 0.65 µM; IC50 [7]: > 1 µM; Ki [3]: 0.123 µM
